Reference: PMC9824012, “Exploring Antimicrobial Peptides Efficacy against Fire Blight (Erwinia amylovora)” (Plants, 2022)
Like-named read-outs stand apart in the source and are kept apart here. Ends that are not written are not given here.

Assays:
Erwinia amylovora [1] = test: Spot test screening of AMPs on plates; format: cell-based, Erwinia amylovora strain PGL Z1; set-up: key to Spot test result at 1 mM / Spot test result at 500 µM / Spot test result at 250 µM / Spot test result at 100 µM / Spot test result at 50 µM / Spot test result at 25 µM / Spot test result at 12.5 µM: +: Clear plaque formation; -: no plaque formation; conditions: for Spot test result at 12.5 µM: 5 µL peptide at 12.5 µM spotted on plate with E. amylovora 10^8 CFU/mL; for Spot test result at 12.5 µM / Spot test result at 25 µM / Spot test result at 50 µM / Spot test result at 100 µM / Spot test result at 250 µM / Spot test result at 500 µM / Spot test result at 1 mM: overnight at 25 °C; for Spot test result at 25 µM: 5 µL peptide at 25 µM spotted on plate with E. amylovora 10^8 CFU/mL; for Spot test result at 50 µM: 5 µL peptide at 50 µM spotted on plate with E. amylovora 10^8 CFU/mL; for Spot test result at 100 µM: 5 µL peptide at 100 µM spotted on plate with E. amylovora 10^8 CFU/mL; for Spot test result at 250 µM: 5 µL peptide at 250 µM spotted on plate with E. amylovora 10^8 CFU/mL; for Spot test result at 500 µM: 5 µL peptide at 500 µM spotted on plate with E. amylovora 10^8 CFU/mL; for Spot test result at 1 mM: 5 µL peptide at 1 mM spotted on plate with E. amylovora 10^8 CFU/mL; for Spot test, killing of E. amylovora at 50 µM (in words): peptide 50 µM
Description: (§1) The bacterial material consisted of E. amylovora strain PGL Z1, isolated in 2013 from pear in Apulia region (Italy), and Xanthomonas campestris pv. campestris strain CFBP 1710 (X. campestris), isolated in 1975 from Brassica oleracea var. botrytis in France, which was used as a control to investigate the bactericidal activity and action mode of AMPs against two different bacteria. The bacterial strains were cultured on yeast extract peptone glucose agar (YPGA) and broth (YPG) media, consisting of 0.5% yeast extract, 0.5% peptone, 1% glucose and 1.5% agar. E. amylovora and X. campestris cell suspensions were prepared in sterile distilled water and the suspensions were adjusted to an optical density at 600 nm (OD600) of 0.1, which corresponds approximately to 10^8 CFU/mL.
The nine AMPs were screened using the spot test to select those with the best antibacterial activity against E. amylovora. Briefly, 300 µL of E. amylovora suspension (10^8 CFU/mL) was poured into the plates and maintained at room temperature for 15 min. Subsequently, 5 μL from each peptide at different concentrations (1000, 500, 250, 100, 50, 25 and 12.5 μM) was spotted onto the surface of the plates, followed by overnight incubation at 25 °C. Sterile distilled water was spotted in the plates as a control.
Supplementary Table S1. Results of the spot tests for the nine antimicrobial peptides used against Erwinia
Ascaphin-8 GF-19 + + + + + - -
DASamP1 FF-13 + + + - - - -
DASamP2 IL-14 + + + + + - -
Lycotoxin I IL-25 + + + + - - -
Maculatin 1.3 GF-21 + + + - - - -
Piscidin 1 FG-22 + + + + + - -
BP178 KL-29 + + + + + + -
RIJK2 RV-12 + + + - - - -
+: Clear plaque formation; -: no plaque formation.

Erwinia amylovora [2] = conditions: 24 h
Description: as §1
Briefly, 20 µL from each concentration (50 and 250 µM) was mixed with 180 µL of E. amylovora suspension (YPG) and incubated at 25 °C for 24 h. Six OD600 nm measures were taken over 24 h using the NanoDrop™ One/OneC Microvolume UV-Vis Spectrophotometer (ThermoFisher Scientific, Waltham, MA, USA).

Erwinia amylovora [3] = test: Fluorescence microscopy LIVE/DEAD BacLight (SYTO9/PI); format: cell-based, Erwinia amylovora strain PGL Z1; conditions: 1 h, calculated from SYTO9 and PI counts
Description: The bactericidal activity of the selected peptides (GF19, FG22, IL14, and KL29) was assessed by a test contact for 24 h, as described (Section 2.3), coupled with v-qPCR assay using the PMAxx™ (Biotium, Rome, Italy). PMAxx™ is a photo-reactive dye that binds to DNA with high affinity; upon cell lysis, it covalently attaches to disrupted DNA that cannot be amplified by PCR. This unique feature makes PMAxx™ extremely useful in selective detection of bacterial cells with intact plasma membranes by qPCR. Briefly, after 24 h at 25 °C, 200 µL of the mixture was transferred to a new tube and treated with PMAxx at a final concentration of 7.5 μM. Subsequently, samples were incubated in the dark at room temperature for 8 min, followed by photoactivation for 15 min. Genomic DNA of all samples was extracted using the cetyltrimethylammonium bromide (CTAB) method. v-qPCR was carried out in a thermocycler apparatus (Bio-Rad CFX96, BioRad, Milan, Italy), using Ea-lsc primers and conditions reported in Laforest et al.. The v-qPCR cycles consisted of an initial denaturation step of 95 °C for 5 min; 45 cycles of 95 °C for 30 s and 60 °C for 30 s with fluorescence readings at each cycle. For the FM assay, aliquots of E. amylovora suspension were incubated with 50 and 250 μM of selected peptides for 1 h at room temperature. The same protocol was used for X. campestris at different concentrations (100, 50, 25, 12.5, 6.25, 2 μM) using KL29 peptide, known for its potent bactericidal activity against X. campestris. The LIVE/DEAD ®BacLight™ viability kit (ThermoFisher Scientific, Milan, Italy) was used according to the manufacturer’s recommendation to assess the integrity of bacteria cells treated with the peptides at 1 h post-infection (Stocks, 2004). Briefly, 9 μL of sample was mixed with 0.5 μL of SYTO9 and 0.5 μL of propidium iodide (PI) for 15 min at room temperature in the dark. Photomicrographs were taken with a Nikon E800 microscope using a fluorescein isothiocyanate (480/30 excitation filter, DM505 dichroic mirror, 535/40 emission filter) and tetramethyl rhodamine isocyanate (546/10 excitation filter, DM575 dichroic mirror, 590 emission filter) fluorescence filter sets.
Supplementary Table S2. The statistical analysis consisted of counting the coloured spo ts (green: SYTO9 and red: PI) in the different channels of 10 replicas for the two concentrations of each antimicrobial peptide and the relative percentages of viable cells is calculated.
250 µM 50 µM % of viability
(1 picture or pasted object on this page, not shown here)

Erwinia amylovora [4] = test: In vivo antibacterial activity on inoculated immature pear fruits; set-up: species or system Erwinia amylovora on pear fruits (cv. 'Recchia falsa'); conditions: immature pears, 6 days at 25 °C, eight replicates
Description: To evaluate the in vivo antibacterial activity of selected AMPs, immature pear fruits (cv. ‘Recchia falsa’) were inoculated with E. amylovora and AMPs were applied. Briefly, ten-week-old pears were disinfected by immersion in a 70% ethanol solution for 2 min and then rinsed 3 times in sterile distilled water. Disinfected fruits were pricked to approximately 5 mm deep, with a sterile micropipette tip and inoculated with 20 µL of E. amylovora suspension (10^8 CFU/mL). Once the fruits had absorbed the bacteria, two concentrations of peptides (50 and 250 µM) were used; 20 µL of the concentration was introduced into the inoculation site and incubated in a humid chamber at 25 °C for 6 days. Fruits inoculated with sterile water and with E. amylovora suspension were included as controls. The experiment consisted of eight replicates per treatment, and symptoms were recorded at 6 days post-infection. The symptoms developed in immature pears (i.e., necrosis or bacterial exudates) were evaluated by measuring the diameter of necrotic lesions. The data were then analyzed using variance analysis (ANOVA), followed by Duncan’s multiple range test (α = 0.05), using SPSS statistical software (version 24.0, IBM, Armonk, N.Y., USA). All data were presented as mean values ± standard deviation (SD).

immature pear fruits = format: in vivo, pear (cv. 'Recchia falsa')
Description: (§2) The possible toxicity of the selected peptides was evaluated using immature pear fruits (cv. ‘Recchia falsa’), and horse erythrocyte cells, respectively, as plant and animal cell models. Briefly, six fruits for each peptide were pricked to approximately 5 mm deep and inoculated with 100 µL of the corresponding peptide at 50 and 250 µM concentrations. Fruits were kept in a chamber at room temperature for 5 days and repeatedly examined for the development of lesions. The peptide toxicity was measured as lesion diameter. Erythrocytes from a horse blood sample (provided by the University of Bari, Department of Veterinary Medicine, Valenzano, Italy) were used for the hemolytic assay. The erythrocytes were challenged with AMPs at 50 and 250 µM for 3 h and their possible hemolytic activity was observed under light microscope.

horse erythrocyte cells = format: cell-based
Description: as §2

[5] = 20 µL peptide at 50 µM into inoculation site
[6] = 20 µL peptide at 250 µM into inoculation site
[7] = 100 µL peptide at 50 and 250 µM, 5 days at room temperature, six fruits per peptide
[8] = peptide 50 and 250 µM, 3 h, light microscope

Substance	Spot test result at 12.5 µM (Erwinia amylovora [1])	Spot test result at 25 µM (Erwinia amylovora [1])	Spot test result at 50 µM (Erwinia amylovora [1])	Spot test result at 100 µM (Erwinia amylovora [1])	Spot test result at 250 µM (Erwinia amylovora [1])	Spot test result at 500 µM (Erwinia amylovora [1])	Spot test result at 1 mM (Erwinia amylovora [1])	Spot test, killing of E. amylovora at 50 µM (in words) (Erwinia amylovora [1])	Inhibition of E. amylovora growth (OD600) (Erwinia amylovora [2]; 50 µM) [%]	Inhibition of E. amylovora growth (OD600) (Erwinia amylovora [2]; 250 µM) [%]	% of viability (Erwinia amylovora [3]; peptide 50 µM) [%]	% of viability (Erwinia amylovora [3]; peptide 250 µM) [%]	Reduction of fire blight symptoms (necrotic lesion diameter) (Erwinia amylovora [4]; [5]) [%]	Reduction of fire blight symptoms (necrotic lesion diameter) (Erwinia amylovora [4]; [6]) [%]	Toxicity (hypersensitive or cytotoxic activity) on pear fruits (in words) (immature pear fruits; in vivo)	Toxicity (hemolytic or cytotoxic activity) on horse erythrocytes (in words) (horse erythrocyte cells)	Toxicity (hypersensitive or cytotoxic activity) on pear fruits (in words) (immature pear fruits; [7])	Toxicity (hemolytic or cytotoxic activity) on horse erythrocytes (in words) (horse erythrocyte cells; [8])
FFGKVLKLIRKIF-NH2 [FF13, DASamP1, synthetic antimicrobial peptide, synthesized by ProteoGenix]	-	-	-	-	+	+	+											
FFHHIFRGIVHVGKTIHRLVTG [FG22, Piscidin 1] [listing 1 of 2 here]	-	-	+	+	+	+	+	could kill E. amylovora	~60	92	28	49	48	65				
FFHHIFRGIVHVGKTIHRLVTG [FG22, Piscidin 1] [listing 2 of 2 here]															toxicologically safe for plant and animal cells	toxicologically safe for plant and animal cells		
GFKDLLKGAAKALVKTVLF-NH2 [GF19, Ascaphin-8]	-	-	+	+	+	+	+	could kill E. amylovora			44	64	43	48			toxicologically safe for plant and animal cells	toxicologically safe for plant and animal cells
GLLGLLGSVVSHVVPAIVGHF-NH2 [GF21, Maculatin 1.3, antimicrobial peptide of frog origin, synthesized by ProteoGenix]	-	-	-	-	+	+	+											
IKWKKLLRAAKRIL-NH2 [IL14, DASamP2]	-	-	+	+	+	+	+	could kill E. amylovora			15	48	61	76			toxicologically safe for plant and animal cells	toxicologically safe for plant and animal cells
Lycotoxin I [IL25]	-	-	-	+	+	+	+											
RIVWVRIRRWFV-NH2 [RV12, RIJK2, synthetic antimicrobial peptide, synthesized by ProteoGenix]	-	-	-	-	+	+	+											
VQFRIRVRIVIRK-NH2 [VK13, 1036, synthetic antimicrobial peptide, synthesized by ProteoGenix]	-	-	-	-	+	+	+											
